Experimental data reported in patent publication US9102637B2, “Bicyclic thiazole compounds” (CARNA BIOSCIENCES INC., priority 2013, dated 2015).

Biological target: human TNIK (N-terminal segment, TNIK_N, residues 1-314) (Homo sapiens (Human), UniProt Q9UKE5)
Assay: TNIK kinase assay (mobility shift)
Format: biochemical
Conditions: TNIK_N kinase activity, 25 μM ATP, 1 h at room temperature
Description: Preparation of Recombinant Human TNIK (N-Terminal Segment):
A cDNA encoding the N-terminal segment (TNIK_N, residues 1-314) containing the kinase domain of human TNIK (NM_015028.1) was amplified from cDNA mixture synthesized from human tissue (Biochain) by PCR using the following primers.
The cDNA was subcloned into baculovirus transfer vector pFastBac_GSTb that includes protease cleavage site and glutathione S-transferase purification tag (GST-tag). The plasmid was purified and the insertion of the pFastBac_GSTb-TNIK_N was confirmed by DNA sequencing. Then E. coli DH10Bac competent cells were transformed with the plasmid to prepare the recombinant bacmid according to the instructions for the Bac-to-Bac™ baculovirus expression systems (Invitrogen). The Sf9 cells were transfected with the recombinant bacmid containing pFastBac_GSTb-TNIK_N using Cellfectin Reagent (Invitrogen) in SF-9001I serum free media (Invitrogen). The viral supernatant was collected from the medium 72 h after transfection. The virus was amplified three times by infecting actively growing Sf9 or Sf21 cells in Grace's insect media (Invitrogen) supplemented with 10% FCS and an antibiotic-antimycotic reagent (Invitrogen) for 72 h at 27° C. in T-flask or roller bottles. The titer of amplified TNIK_N virus was estimated at 2.36×10^8 pfu/ml by using BacPAK™ Baculovirus Rapid Titer kit (Clontech).
Log-phase Sf21 cells (2×10^6 cells/ml) in the Grace's insect media were infected with the recombinant baculovirus at MOI of 3.0 and incubated in roller bottles (250 ml media per bottle) for 72 h at 27° C., after which, the cells were collected by centrifugation, and the cell pellet washed with cold PBS and kept at −80° C. until purification. The following purification procedures were carried out at 4° C. The frozen cells were thawed on ice and lysed in lysis buffer (50 mM Tris-HCl, pH 7.5, 150 mM NaCl, 1% Nonidet P-40, 5 mM DTT, 0.5 mM EDTA, 0.5 mM EGTA) supplemented with 1 mM phenylmethansulfonylfluoride, 2 μg/ml leupeptin, 2 μg/ml aprotinin, 1 mM NaF, 100 μM sodium orthovanadate, and 1 μM cantharidin by sonication. The suspended lysate was cleared by centrifugation at 9000g for 20 min and the supernatant was incubated for 1 h with glutathione Sepharose beads (GE Healthcare). The beads were suspended in buffer-H (50 mM Tris-HCl, pH 7.5, 1 M NaCl, 1 mM DTT, 0.5 mM EDTA, 0.5 mM EGTA and 0.05% Brij35) and washed with buffer-H followed by buffer-L (50 mM Tris-HCl, pH 7.5, 150 mM NaCl, 1 mM DTT, 0.5 mM EDTA, 0.5 mM EGTA, 0.05% Brij35) in an Econo-pack column (BIO-RAD). The bound TNIK_N was eluted with elution buffer (50 mM Tris-HCl, pH 8.0, 150 mM NaCl, 1 mM DTT, 10% glycerol, 0.5 mM EDTA, 0.5 mM EGTA and 5 mM reduced glutathione). The eluted fractions were collected and determined the protein concentration by Bradford reagent (BIO-RAD). The TNIKN fractions were pooled and desalted using 10DG column (BIORAD) equilibrated with the storage buffer (50 mM Tris-HCl, pH 7.5, 150 mM NaCl, 1 mM DTT, 10% glycerol, 0.05% Brij35). The purified TNIKN was characterized by electrophoresis using 4-20% polyacrylamide gels and matrix-assisted laser desorption/ionization reflection time-of-flight (MALDI-TOF) mass spectrometry on a Voyager-DE RP MALDI/TOF (Applied Biosystems). TNIK_N was confirmed by the molecular weight and. MASCOT Peptide Mass Fingerprint.
The kinase assays were conducted in a 20 μl volume using 384-well plates (Greiner). The reaction mixture consists of compound or vehicle (1% DMSO), 0.08 ng/μl TNIK_N, 1 μM FITC-labeled substrate peptides, including E-aminocaproic acid and 7 amino acids (described as SEQ ID NO.3 in “Kinase assay of TEST EXAMPLE 1” of WO 2010/064111(P.31)), 20 mM Hepes, pH 7.5, 0.01% Triton X-100, 5 mM MgCl2, 25 μM ATP and 2 mM DTT. As blank, TNIK N was excluded from the reaction mixture of vehicle (1% DMSO). […]

Chain of human TNIK (N-terminal segment, TNIK_N, residues 1-314) (Q9UKE5 1-314): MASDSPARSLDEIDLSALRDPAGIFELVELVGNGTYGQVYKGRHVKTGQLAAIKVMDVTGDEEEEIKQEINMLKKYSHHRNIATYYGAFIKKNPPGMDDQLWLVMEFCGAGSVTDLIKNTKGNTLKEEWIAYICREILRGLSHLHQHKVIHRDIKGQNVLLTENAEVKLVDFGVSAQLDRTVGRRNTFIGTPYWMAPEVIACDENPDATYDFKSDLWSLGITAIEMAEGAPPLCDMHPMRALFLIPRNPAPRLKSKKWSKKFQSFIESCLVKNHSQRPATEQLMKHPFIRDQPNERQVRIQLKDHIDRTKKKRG

IC50 [nM]	Structure (SMILES)
8.4	NC(=O)c1nc(Nc2ccc3ccc(F)cc3c2)sc1NC(=O)c1ccc(Cn2ccnc2)cc1 [Example 262, 5-{4-[(1H-imidazol-1-yl)methyl]benzamido}-2-[(7-fluoronaphthalen-2-yl)amino]thiazole-4-carbox-amide]
2.7	NC(=O)c1nc(Nc2ccc3ccccc3c2)sc1NC(=O)c1ccc(CN2CCN(CCO)CC2)cc1 [Example 185, 5-(4-{[4-(2-hydroxyethyl)piperazin-1-yl]methyl}benzamido)-2-(naphthalen-2-ylamino)thiazole-4-carboxamide]
11.1	Cc1ccc(C(=O)Nc2sc(Nc3ccc4cc(CO)ccc4c3)nc2C(N)=O)s1 [Example 151, 2-{[6-(hydroxymethyl)naphthalen-2-yl]amino}-5-(5-methylthiophene-2-carboxamido)thiazole-4-carboxamide]
5.5	NC(=O)c1nc(Nc2cccc3cccnc23)sc1NC(=O)c1ccc(Cn2ccnc2)cc1 [Example 259, 5-{4-[(1H-imidazol-1-yl)methyl]benzamido}-2-(quinolin-8-ylamino)thiazole-4-carboxamide]
15.1	C[C@H](O)CNc1ccc(C(=O)Nc2sc(Nc3ccc4ccccc4c3)nc2C(N)=O)cc1 [Example 146, (S)-5-{4-[(2-hydroxypropyl)amino]benzamido}-2-(naphthalen-2-ylamino)thiazole-4-carboxamide]
10.1	NC(=O)c1nc(Nc2ccc3cc(F)ccc3c2)sc1NC(=O)c1ccc(Cn2ccnc2)cc1 [Example 249, 5-{4-[(1H-imidazol-1-yl)methyl]benzamido}-2-[(6-fluoronaphthalen-2-yl)amino]thiazole-4-carbox-amide]
5.5	NC(=O)c1nc(Nc2ccc3cc(CO)ccc3c2)sc1NC(=O)c1ccsc1 [Example 70, 2-{[6-(hydroxymethyl)naphthalen-2-yl]amino}-5-(thiophene-3-carboxamido)thiazole-4-carbox-amide]
8.2	CN1CCN(Cc2cc(C(=O)Nc3sc(Nc4cccc5ncccc45)nc3C(N)=O)cs2)CC1 [Example 56, 5-{5-[(4-methylpiperazin-1-yl)methyl]thiophene-3-carboxamido}-2-(quinolin-5-ylamino)thiazole-4-carboxamide]
7.7	NC(=O)c1nc(Nc2ccc3ccccc3c2)sc1NC(=O)c1ccc(Cn2ccnc2)s1 [Example 251, 5-{5-[(1H-imidazol-1-yl)methyl]thiophene-2-carboxamido}-2-(naphthalen-2-ylamino)thiazole-4-carboxamide]
1.3	NC(=O)c1nc(Nc2ccc3ccccc3c2)sc1NC(=O)c1ccc(CN2CCC(N)CC2)cc1 [Example 222, 5-{4-[(4-aminopiperidin-1-yl)methyl]benzamido}-2-(naphthalen-2-ylamino)thiazole-4-carboxamide]
10.3	NC(=O)c1nc(Nc2ccc3ccccc3c2)sc1NC(=O)c1ccc(Cn2cccn2)cc1 [Example 232, 5-{4-[(1H-pyrazol-1-yl)methyl]benzamido}-2-(naphthalen-2-ylamino)thiazole-4-carboxamide]
10.7	CC(O)CNc1ccc(C(=O)Nc2sc(Nc3ccc4ccccc4c3)nc2C(N)=O)cc1 (stereo not drawn) [Example 30, 5-{4-[(2-hydroxypropyl)amino]benzamido}-2-(naphthalen-2-ylamino)thiazole-4-carboxamide]
24.7	CC(=O)Nc1ccc(C(=O)Nc2sc(Nc3cccc4ccccc34)nc2C(N)=O)cc1 [Example 1, 5-(4-acetamidobenzamido)-2-(naphthalen-1-ylamino)thiazole-4-carboxamide]
19.5	NC(=O)c1nc(Nc2ccc3ccc(F)cc3c2)sc1NC(=O)CCCCCN1CCOCC1 [Example 130, 2-[(7-fluoronaphthalen-2-yl)amino]-5-(6-morpho-linohexanamido)thiazole-4-carboxamide]
5.5	NC(=O)c1nc(Nc2ccc3ccccc3c2)sc1NC(=O)c1ccc(CN2CC[C@@H](O)C2)cc1 [Example 202, (R)-5-{4-[(3-hydroxypyrrolidin-1-yl)methyl]benzamido}-2-(naphthalen-2-ylamino)thiazole-4-carboxamide]
5.8	NC(=O)c1nc(Nc2ccc3cc(CO)ccc3c2)sc1NC(=O)C1CC1 [Example 138, 5-(cyclopropanecarboxamido)-2-{[6-(hydroxy-methyl)naphthalen-2-yl]amino}thiazole-4-carbox-amide]
2.6	CN(C)[C@H]1CCN(Cc2ccc(C(=O)Nc3sc(Nc4ccc5ccccc5c4)nc3C(N)=O)cc2)C1 [Example 221, (S)-5-(4-{[3-(dimethylamino)pyrrolidin-1-yl]methyl}benzamido)-2-(naphthalen-2-ylamino) thiazole-4-carboxamide]
15	NC(=O)c1nc(Nc2ccc3ccccc3c2)sc1NC(=O)C1CC1 [Example 93, 5-(cyclopropanecarboxamido)-2-(naphthalen-2-yl-amino)thiazole-4-carboxamide]
7.1	Cc1nnnn1Cc1ccc(C(=O)Nc2sc(Nc3ccc4ccccc4c3)nc2C(N)=O)cc1 [Example 244, 5-{4-[(5-methyl-1H-tetrazol-1-yl)methyl]benz-amido}-2-(naphthalen-2-ylamino)thiazole-4-carbox-amide]
27.2	Cc1ccc(C(=O)Nc2sc(Nc3ccc4ccccc4c3)nc2C(N)=O)cc1N [Example 9, 5-(3-amino-4-methylbenzamido)-2-(naphthalen-2-ylamino)thiazole-4-carboxamide]
9.7	NC(=O)c1nc(Nc2ccc3ccccc3c2)sc1NC(=O)C#CCCCn1ccnc1 [Example 234, 5-[6-(1H-imidazol-1-yl)hex-2-ynamido]-2-(naph-thalen-2-ylamino)thiazole-4-carboxamide]
8.7	NC(=O)c1nc(Nc2ccc3ccccc3c2)sc1NC(=O)c1csc(Cn2ccnc2)c1 [Example 258, 5-{5-[(1H-imidazol-1-yl)methyl]thiophene-3-carboxamido}-2-(naphthalen-2-ylamino)thiazole-4-carboxamide]
8.4	NCCNc1ccc(C(=O)Nc2sc(Nc3ccc4ccccc4c3)nc2C(N)=O)cc1 [Example 188, 5-{4-[(2-aminoethyl)amino]benzamido}-2-(naph-thalen-2-ylamino)thiazole-4-carboxamide]
9.4	NC(=O)c1nc(Nc2cccc3ncccc23)sc1NC(=O)c1ccsc1 [Example 40, 2-(quinolin-5-ylamino)-5-(thiophene-3-carbox-amido)thiazole-4-carboxamide]
12.8	NC(=O)c1nc(Nc2ccc3ccc(F)cc3c2)sc1NC(=O)C1CC1 [Example 122, 5-(cyclopropanecarboxamido)-2-[(7-fluoro-naphthalen-2-yl)amino]thiazole-4-carboxamide]
5.7	CN(c1ccc2ncccc2c1)c1nc(C(N)=O)c(NC(=O)c2csc(CN3CCOCC3)c2)s1 [Example 51]
7.2	NC(=O)c1nc(Nc2ccc3ccccc3c2)sc1NC(=O)c1ccc(N2CCN(CCO)CC2)cc1 [Example 187, 5-{4-[4-(2-hydroxyethyl)piperazin-1-yl]benzamido}-2-(naphthalen-2-ylamino)thiazole-4-carbox-amide]
